Test results from patent EP4480494A1, “COMPOSITION FOR USE IN TREATMENT OF CANCER, INFLAMMATORY DISEASES, OR OBESITY, AND USE THEREOF” (National University Corporation Tokyo Medical and Dental …, priority 2022, dated 2023).

Assays:
[1] = test system: ZCCHC24; assay: Compound screening using HiBiT tag knock-in cells (ZCCHC24 expression reporter); assay type: cell-based, human; conditions: LOPAC compounds at 1 µM for 24 hours; HiBiT tag-inserted MDAMB231 reporter cells
Procedure: HiBiT tagged-MDAMB231 cells with were produced using the procedure below. First, crRNA (*14 (SEQ ID NO: 14) in Table 1) (IDT) was resuspended in the Nuclease-Free Duplex buffer (IDT) to a final concentration of 100 µM, and incubated at 95°C for 5 minutes together with the same amount of tracrRNA (IDT). The oligo complex was then slowly cooled down to room temperature and incubated with ALT-R Cas9 Nuclease V3 (61 µM) (Integrated DNA Technologies, IA, USA) for 20 minutes at room temperature to form the Cas9 complex. Next, a single-stranded DNA oligo (*15 (SEQ ID NO: 15) in Table 1) (comprising the HiBiT sequence and a sequence complementary to the sequence of the C-terminal region of ZCCHC24) and Cas9 complex were co-transfected into MDAMB231 cells by an electroporation method using the NEPA21 super electroporator ([…]). After single cell cloning, cells inserted with the HiBiT tag were collected.
The compound screening procedure is as follows. HiBiT tag-inserted cells were plated at 1 × 10^4 cells in a 96-well plate, cultured for 24 hours, and then reacted with a low molecular compound library (LOPAC; Sigma Aldrich) at 1 µM (final concentration) for 24 hours. After the culture medium was discarded, cells were incubated with 12.5 µL PBS, 12.5 µL lysis buffer (Promega), 0.5 µL substrate (Promega), and 0.25 µL LgBiT (Promega) for 10 minutes at room temperature in the dark. The luminescence intensity was measured using ARVO X3 (Perkin Elmer).
As mentioned above, ZCCHC24 is strongly expressed in cancer stem cell-like cells, and maintains the expression of genes important for maintaining cancer stemness by directly binding to the mRNA of these genes. Therefore, in order to clarify the expression induction mechanism of ZCCHC24, labeled reporter cells were created by inserting a HiBiT tag into the C terminus of ZCCHC24, 1280 types of compounds in LOPAC (Sigma Aldrich) were administered to these reporter cells at a concentration of 1 µM for 24 hours, and compound screening was performed (Figure 17A). […]

[2] = test system: ZCCHC24; assay: cells; assay type: cell-based; conditions: Homo sapiens; HiBiT tag-inserted cells, 24 hours; read-out: EC50 concentration for the maximal increase in the ZCCHC24 expression
Procedure: 1 × 10^4 HiBiT tag-inserted cells were seeded in a 96-well plate. […] After 24 hours, the medium was discarded, and 12.5 µL PBS, 12.5 µL Lytic Buffer from the HiBiT kit (Promega), 0.5 µL substrate, and 0.25 µL LgBiT were added. After 10 minutes of reaction at room temperature, luminescence was measured using ARVO X3 (Perkin Elmer).

[3] = test system: MDAMB231; assay: cells; assay type: cell-based; conditions: Homo sapiens, MDA-MB-231; MDAMB231, 48 hours, Cell Titer Glo; read-out: IC50 for maximal cell survival inhibition
Procedure: 2 × 10^3 HiBiT tag-inserted cells were seeded in a 96-well plate. […] After 48 hours, 20 µL of Cell Titer Glo (Promega) was added. After 30 minutes of reaction at 37°C, the […] was measured using ARVO X3 (Perkin Elmer).

[4] = test system: MDAMB231 cells; assay type: cell-based, human; conditions: 100 nM JQ1, 1 µM PD407824 or both, 24 hours, CD44/NRP1 staining
Procedure: 2 × 10^5 MDAMB231 cells were seeded in a 6-well plate. […] Twenty-four hours later, cells were collected, stained with CD44-PE (IM7, Biolegend) and NRP1-APC (FAB3870A, R&D), and subjected to FACS analysis using FACS Calibur (BD).

[5] = test system: ZEB1; assay: qPCR analysis on JQ1-treated MDAMB231; assay type: cell-based, human; conditions: MDAMB231, 100 nM JQ1, 24 hours

Row | SMILES | Z score (ZCCHC24 expression) [1] | EC50 [2] | IC50 [3] | cancer stem cell-like population [4] | expression of ZEB1 [5]
1 | CC(=O)[C@]1(O)Cc2c(O)c3c(c(O)c2[C@@H](O[C@H]2C[C@H](N)[C@H](O)[C@H](C)O2)C1)C(=O)c1ccccc1C3=O [idarubicin] | up-regulators (compounds with Z score > 3.0 above were defined as up-regulators) | – | – | – | –
2 | COc1cc2c[n+](C)c3c4cc5c(cc4ccc3c2cc1OC)OCO5 [nitidine] | up-regulators (compounds with Z score > 3.0 above were defined as up-regulators) | – | – | – | –
3 | Cc1sc2c(c1C)C(c1ccc(Cl)cc1)=NC(CC(=O)OC(C)(C)C)c1nnc(C)n1-2 (stereo not shown) [JQ1] | – | ~50 nM | ~100 nM | no decrease | dramatically increased
4 | CC[C@@]1(O)C(=O)OCc2c1cc1n(c2=O)Cc2cc3ccccc3nc2-1 [camptothecin] | up-regulators (compounds with Z score > 3.0 above were defined as up-regulators) | – | – | – | –
